Reference: patent publication US20250099427A1, “Drug and Method of Treating or Preventing Renal Disease Using Drug” (Showa University, priority 2018, published 2025)

What was measured:
[1] = system: Acute Renal Failure Animal Model; experiment: Test using acute renal failure animal model (renal ischemia and reperfusion), renal function parameters; format: in vivo, mouse; details: for Cer: creatinine clearance; for FENa: fractional excretion of sodium; for KW: kidney weight
Excerpt: A male ddY strain mouse (30 g) was used as an experimental animal. Under anesthesia with isoflurane, the right flank was incised about 2 cm to expose the kidney. After ligating the renal arteries and veins and the ureter, the right kidney was isolated.
A recovery period of 2 weeks was given, and then an acute renal failure mouse model was produced. Under anesthesia with isoflurane, the left abdomen was incised about 3 cm to expose the left kidney, and the fat around the renal arteries and veins was removed. The blood flow in the left renal arteries and veins was blocked using an atraumatic clip, and the kidney was left in ischemia for 45 minutes. The blood flow was then reperfused by removing the atraumatic clip, the kidney was returned to the abdominal cavity, and the flank was sutured. Mice similarly subjected to the steps other than the ischemia and reperfusion steps using the atraumatic clip were designated as a sham group (eight mice).
After 15 minutes of the initiation of ischemia, the vehicle, SMTP-7, SMTP-27, SMTP-44D, and edaravone were continuously administered to the femoral vein for 30 minutes.
24 hours after the ischemia and reperfusion processes, urine was collected for 24 hours using a metabolic cage, and the urinary output (UF; μL/min/kg) was measured. During collecting urine, only water was freely given. After urine collection, the body weight of each mouse was measured, and blood was collected from the abdominal aorta under anesthesia with isoflurane. After blood collection, the left kidney was isolated and the fat was removed in physiological saline. The kidney weight (KW; mg/g) was measured, and then the kidney was fixed in a 10% neutral buffered formalin solution for Hematoxylin Eosin (HE) staining.
The collected blood was centrifuged at 800×g for 15 minutes at 25° C. to collect serum. Further, the urine collected using a metabolic cage was also used to evaluate renal function. In order to evaluate parameters in the serum, blood urea nitrogen (BUN; mg/dL) was measured using a QuantiChrom Urea Assay Kit (Funakoshi Co., Ltd.). Serum creatinine concentration (Scr; mg/dL) and urinary creatinine concentration (Ucr; mg/dL) were measured using LabAssay (trademark) Creatinine (manufactured by Wako Pure Chemical Industries, Ltd.), and creatinine clearance (Ccr; mL/min/kg) was calculated. The concentrations of sodium in the serum and urine were measured using Fuji Dry Chem 7000 (manufactured by FUJIFILM Corporation), and fractional excretion of sodium (FENa; %) was calculated. Urinary albumin concentration (Ualb; mg/hr/kg) was measured using Albwel M (manufactured by Cosmo Bio Co., Ltd.).
In Table 11, the experimental results are expressed in mean±standard error in eight mice in each group. For comparison among multiple groups, firstly, one-way analysis of variance (ANOVA) was conducted, and then a Bonferroni test was conducted, if significant difference was recognized. Significant difference was recognized with a significance level of less than 5% (P<0.05).

[2] = system: Acute Renal Disease (Cisplatin Nephropathy) Animal Model; experiment: Cisplatin nephropathy model, histopathological study (HE staining); format: in vivo, mouse; details: 10 mg/kg 1 day after cisplatin
Description: In Tables 13 to 15, the experimental results are expressed in mean±standard error. The RT-PCR results were corrected with the amount of β-Actin as an endogenous control gene. With reference to statistically significant difference, an unpaired test between two groups (Student's t-test) was conducted for comparison between two groups, and one-way analysis of variance was conducted and then a Dunnett test was conducted for comparison among multiple groups. Further, in the histopathological study, a Mann-Whitney U test was conducted, and in all cases, a significance level of 5% or less (P<0.05) was regarded as significant difference.
10 mg/kg of SMTP-7 was administered 1 day after administration of cisplatin, and 3 days later, the kidney was isolated by the same method as in the evaluation of real time RT-PCR, and the histopathological study was conducted.
Formalin-fixed kidney was permeated with paraffin using an automatic embedding device to produce a paraffin block. The paraffin block was sliced into 3 μm sections with a microtome, and placed on a slide glass. Then, the sections were stretched with a paraffin stretcher at 52° C., and sufficiently dried overnight in a paraffin melter at 37° C. After deparaffinization and washing with water, the sections were stained with a Mayer's hematoxylin staining solution for 1 minute and washed with running water for 15 minutes. Thereafter, the sections were stained with an eosin staining solution for 45 seconds, and dehydrated with 80% to 100% ethanol, followed by clearing with xylene and sealing with marinol. Each specimen was examined microscopically at a magnification of 50 using an optical microscope. The degree of damage was examined microscopically at a magnification of 100 and 5 fields of view (1 field=2 mm, 5 fields=10 mm) and scored according to the following criteria. • Score 0: No significant change • Score 1: damage range 1 mm or less • Score 2: damage range 1 to 2 mm • Score 3: damage range 2 to 5 mm • Score 4: damage range 5 mm or more

[3] = 0.01 mg/kg continuous femoral vein 30 min from 15 min after start of 45 min ischemia, mean±SE, 8 mice
[4] = 0.1 mg/kg continuous femoral vein 30 min from 15 min after start of 45 min ischemia, mean±SE, 8 mice
[5] = 0.1 mg/kg, acute renal failure model
[6] = 1 mg/kg continuous femoral vein 30 min from 15 min after start of 45 min ischemia, mean±SE, 8 mice
[7] = 1 mg/kg, acute renal failure model
[8] = 10 mg/kg continuous femoral vein 30 min from 15 min after start of 45 min ischemia, mean±SE, 8 mice
[9] = 0.01 mg/kg continuous femoral vein 30 min from 15 min after start of 45 min ischemia, mean±SE, 8 mice, 0.01 mg/kg
[10] = 0.1 mg/kg continuous femoral vein 30 min from 15 min after start of 45 min ischemia, mean±SE, 8 mice, 0.1 mg/kg
[11] = 1 mg/kg continuous femoral vein 30 min from 15 min after start of 45 min ischemia, mean±SE, 8 mice, 1 mg/kg
[12] = 10 mg/kg continuous femoral vein 30 min from 15 min after start of 45 min ischemia, mean±SE, 8 mice, 10 mg/kg
[13] = Score 1: damage range 1 mm or less
[14] = score 0 (no significant change) to 4 (damage range 5 mm or more), N 7

## CC(C)=CCC/C(C)=C/CC[C@@]1(C)Oc2c(c(O)cc3c2CN(CCC[C@@H](C(=O)O)N2Cc4c(cc(O)c5c4O[C@](C)(CC/C=C(\C)CCC=C(C)C)[C@@H](O)C5)C2=O)C3=O)C[C@@H]1O [SMTP-7]
[1]; [3]
  BUN: 108.8 ± 26.6 mg/dL
  Scr: 0.9 ± 0.2 mg/dL
[1]; 0.01 mg/kg, acute renal failure model
  Ualb: 1.8 ± 0.3 mg/h/kg
[1]; [4]
  BUN: 125.8 ± 28.7 mg/dL
  Scr: 1.0 ± 0.3 mg/dL
[1]; [5]
  UF: 0.0825 ± 0.0088 mL/min/kg
  Ualb: 1.1 ± 0.3 mg/h/kg
[1]; [6]
  BUN: 66.0 ± 11.3 mg/dL
  Scr: 0.5 ± 0.1 mg/dL
[1]; [7]
  UF: 0.0623 ± 0.0134 mL/min/kg
  Ualb: 0.7 ± 0.2 mg/h/kg
[1]; [8]
  BUN: 44.1 ± 2.9 mg/dL
  Scr: 0.4 ± 0.0 mg/dL
[1]; 10 mg/kg, acute renal failure model
  Ualb: 0.5 ± 0.1 mg/h/kg
[1]; [9]
  Cer: 1.6 ± 0.3 mL/min/kg
  FENa: 1.8±0.8%
  KW: 14.5 ± 0.6 mg/g
[1]; [10]
  Cer: 1.7 ± 0.4 mL/min/kg
  FENa: 2.3±1.0%
  KW: 13.6 ± 1.0 mg/g
[1]; [11]
  Cer: 2.3 ± 0.4 mL/min/kg
  FENa: 1.0±0.2%
  KW: 11.2 ± 0.8 mg/g
[1]; [12]
  Cer: 3.1 ± 0.2 mL/min/kg
  FENa: 0.7±0.1%
  KW: 11.1 ± 0.4 mg/g
[1]; urinary albumin, 0.01 mg/kg continuous femoral vein 30 min from 15 min after start of 45 min ischemia, mean±SE, 8 mice
  Ualb: 1.8 ± 0.3 mg/h/kg
[1]; urinary albumin, 0.1 mg/kg continuous femoral vein 30 min from 15 min after start of 45 min ischemia, mean±SE, 8 mice
  Ualb: 1.1 ± 0.3 mg/h/kg
[1]; urinary albumin, 1 mg/kg continuous femoral vein 30 min from 15 min after start of 45 min ischemia, mean±SE, 8 mice
  Ualb: 0.7 ± 0.2 mg/h/kg
[1]; urinary albumin, 10 mg/kg continuous femoral vein 30 min from 15 min after start of 45 min ischemia, mean±SE, 8 mice
  Ualb: 0.5 ± 0.1 mg/h/kg
[2]; Score 0: No significant change
  Degeneration Necrosis, animals with Score 0: 2/7
  Regeneraed tubules, animals with Score 0: 7/7
  Tublar dilatatuon (Hyoline casts), animals with Score 0: 6/7
[2]; [13]
  Degeneration Necrosis, animals with Score 1: 2/7
  Tublar dilatatuon (Hyoline casts), animals with Score 1: 1/7
[2]; Score 2: damage range 1 to 2 mm
  Degeneration Necrosis, animals with Score 2: 1/7
[2]; Score 3: damage range 2 to 5 mm
  Degeneration Necrosis, animals with Score 3: 1/7
[2]; Score 4: damage range 5 mm or more
  Degeneration Necrosis, animals with Score 4: 1/7
[2]; compared to Control group
  Histopathological changes in the proximal tubules, result in words: the level was lower than that in the Control group and no significant difference was recognized
[2]; [14]
  Degeneration Necrosis, Mean score: 1.6
  Regeneraed tubules, Mean score: 0.0
  Tublar dilatatuon (Hyoline casts), Mean score: 0.1
